# Article PMC10610105, “Designing and Exploration of the Biological Potentials of Novel Centrosymmetric Heteroleptic Copper(II) Carboxylates” (Pharmaceuticals, 2023)
# Experiments:
# [1] = DPPH free radical scavenging assay; details: for IC50: DPPH radical scavenging, read-out: IC50 (µM) ± SEM; for % Inhibition: DPPH
# Procedure: (§1) DPPH and hydroxyl (•OH) radical scavenging assays based on spectroscopic measurements are simple in vitro methods used to evaluate the antioxidant potential of test compounds. The promising results of these assays could be exploited as preliminary tests in search of drugs with potential anticancer, anti-aging, and anti-inflammatory activities. Within this context, the abilities of the free ligand acid (HL) and synthesized complexes (1 and 2) to scavenge DPPH and hydroxyl radicals were determined in order to evaluate their potential antioxidant ability compared to that of vitamin C as a reference compound.
# The in vitro DPPH free radical scavenging activities of the free ligand acid and complexes 1 and 2 were assessed, as per a reported procedure with slight modification in the protocol.
# Different concentrations (15, 30, 60, 120, and 240 μM) of the free ligand acid and complexes were mixed with 1000 μL of 255 μM DPPH solution made in ethanol. The mixture solutions were shaken and incubated in the dark for 30 min at room temperature. The absorbance of the solutions was measured at 518 nm using a UV-VIS spectrophotometer. Ascorbic acid of fixed concentration was used as a positive control. The readings were made in triplicate. Percentage inhibition of the test compounds was evaluated by using the formula: %scavenging=Ac−As/Ac×100 where Ac and As are the observed absorbance values of the control and the sample, respectively.
# [2] = Hydroxyl radical scavenging assay; details: for IC50: hydroxyl radical scavenging, read-out: IC50 (µM) ± SEM; for % Inhibition: hydroxyl radical
# Procedure: as §1
# The hydroxyl radical scavenging activities of the free ligand acid and synthesized complexes (1 and 2) were evaluated according to a reported method. Different concentrations (15, 30, 60, 120, and 240 μM) of the free ligand acid and complexes were mixed with 0.4 M phosphate buffer (pH 6.6) (1000 μL), 0.1% hydrogen peroxide (100 μL), 3.7 mM o-phenanthroline (200 μL), and 7.5 mM ferrous sulfate (100 μL). The mixtures were diluted with distilled water to 3000 μL before incubating for 30 min at room temperature. The absorbance of mixtures was recorded at 510 nm using ascorbic acid as a standard.
# The %scavenging was calculated using the following formula: %scavenging=As−Ac/Ab−As×100 where As, Ac, and Ab are the observed absorbance values of the sample, control, and blank, respectively.
# [3] = test system: α-amylase; assay: α-amylase enzyme inhibition assay; type: biochemical, Saccharomyces cerevisiae; details: for IC50: α-amylase inhibition
# Procedure: A reported protocol with slight modification was used to perform the α-amylase enzyme inhibition assay. A stock solution (1 unit/mL) was prepared by dissolving α-amylase solution from Saccharomyces cerevisiae in 50 mM potassium phosphate buffer (pH 6.8), and for the substrate, in the same buffer 20 mM p-nitrophenyl-α-D-glucopyranoside (PNG) was prepared. The assay was conducted in triplicate using 96-well plates. […] For the experiments, each well contained phosphate buffer 65 μL (50 mM, pH 6.8), PNG 25 μL, α-amylase enzyme 5 μL (0.05 U/mL), and test sample 5 μL. The plates were allowed to incubate at 37 °C for 30 min, followed by the addition of 100 μL sodium bicarbonate (0.5 mM) as a stopping agent.
# By using a microplate reader (BioTek Elx-800, Winooski, VT, USA), absorbance was recorded at 405 nm. The percent inhibition was calculated using the formula: %Inhibition=Acontrol−Asample/Acontrol × 100 where Acontrol is the control absorbance and Asample is the sample absorbance.
# [4] = test system: SS-DNA (salmon sperm DNA); assay: DNA binding study by UV-visible absorption spectroscopy; details: complex-DNA interaction, calculated
# Procedure: UV-visible absorption measurements can be used to monitor changes occurring in λmax values (red or blue shifts) and absorption intensity (hyper- or hypochromism) of either a test compound or DNA as a result of any possible interaction. These changes can be used to find some details about the mode of interaction of metal complexes with DNA [25]. In the present study, absorption titrations were made with a fixed concentration (200 μM) of complexes against varying concentrations (5-30 μM) of SS-DNA. The extent of complex-DNA binding was assessed by calculating intrinsic binding constant (Kb) values using the well-known Benesi-Hildebrand equation [26]. Ao/A-A0=ε[…]+1/Kb[DNA] where Kb is the binding constant, A is the absorbance of complex-DNA adduct, Ao is the absorbance of pure complex solution, [DNA] is the concentration of SS-DNA in mol/L, εH-G is the molar absorption co-efficient of each complex-DNA adduct, and εG is the molar absorption co-efficient of pure complex. […] Ao/A-Ao along the ordinate, as shown in Figure 3B and Figure 4B for complexes 1 and 2, respectively. […] The SS-DNA solution (ε = 6600 M^-1 cm^-1 at 260 nm) concentration was determined via absorption spectroscopy. The complex solutions (200 μM) were made in aqueous DMSO (1:4). […] To eliminate the absorbance of DNA, equivalent SS-DNA solutions were added to the complex and reference solutions. […]
# [5] = test system: SS-DNA (salmon sperm DNA); assay: DNA binding study by viscometry; details: SS-DNA 87.72 μM, compound 5–30 μM, Ostwald viscometer
# Procedure: The viscosity of the SS-DNA solution (87.72 μM) in the absence and the presence of complexes 1 and 2 (5–30 μM) was measured using an Ostwald viscometer. For accuracy, the readings were made in triplicate for each sample, and then an average flow rate was calculated. Data are presented as (η/ηo)^1/3 vs. binding ratio ® of [complex]/[DNA], where η is the relative viscosity of the complex-DNA adduct, and ηο is the relative viscosity of DNA alone. The relative viscosity values for SS-DNA in the presence (η) and the absence (ηο) of the complexes were calculated using the relation η = (t − to)/to, where t is the observed flow time in seconds.
Structure (SMILES),IC50 [1] [µM],% Inhibition ([1]; dose conc. 15 µM) [%],% Inhibition ([1]; dose conc. 30 µM) [%],% Inhibition ([1]; dose conc. 60 µM) [%],% Inhibition ([1]; dose conc. 120 µM) [%],% Inhibition ([1]; dose conc. 240 µM) [%],IC50 [2] [µM],% Inhibition ([2]; dose conc. 15 µM) [%],% Inhibition ([2]; dose conc. 30 µM) [%],% Inhibition ([2]; dose conc. 60 µM) [%],% Inhibition ([2]; dose conc. 120 µM) [%],% Inhibition ([2]; dose conc. 240 µM) [%],% α-Amylase Activity ([3]; concentration 31.25 µg/mL) [%],% α-Amylase Activity ([3]; concentration 62.5 µg/mL) [%],% α-Amylase Activity ([3]; concentration 125 µg/mL) [%],% α-Amylase Activity ([3]; concentration 250 µg/mL) [%],% α-Amylase Activity ([3]; concentration 500 µg/mL) [%],IC50 [3] [µg/mL],ΔG [4] [kcal/mol],effect on the relative viscosity of the DNA [5]
"Cc1cccnc1.Cc1cccnc1.O=C([O-])Cc1ccc(F)c(F)c1.O=C([O-])Cc1ccc(F)c(F)c1.O=C([O-])Cc1ccc(F)c(F)c1.O=C([O-])Cc1ccc(F)c(F)c1.[Cu+2].[Cu+2] [complex 2, [Cu2(3,4-F2C6H3CH2COO)4(3-CH3py)2]]",365 ± 5.31,4.045,5.150,14.975,21.500,32.550,308 ± 6.89,0.04,1.30,14.50,25.00,35.99,5.33,8.33,20.46,38.00,50.30,455.32,-7.808,pronounced increase
"O=C(O)Cc1ccc(F)c(F)c1 [HL, 3,4-difluorophenylacetic acid]",1010 ± 1.99,1.09,3.05,5.07,7.77,12.55,1771 ± 1.17,0.009,1.050,1.070,2.770,6.660,1.72,1.9,9.22,19.67,32.95,728.17,,no effect
"C[C@H]1O[C@H](O[C@H]2[C@H](O)[C@@H](O)[C@@H](O[C@H]3[C@H](O)[C@@H](O)C(O)O[C@@H]3CO)O[C@@H]2CO)[C@H](O)[C@@H](O)[C@@H]1N[C@H]1C=C(CO)[C@@H](O)[C@H](O)[C@H]1O (stereo partly shown) [Acrabose, acarbose, reference compound]",,,,,,,,,,,,,14.34,26.42,46.39,68.61,84.33,,,
"O=C1O[C@H]([C@@H](O)CO)C(O)=C1O [Vit. C, ascorbic acid, reference compound]",127 ± 14,7.09,15.09,29.98,58.09,82.35,162 ± 12.1,6.78,10.49,16.87,43.87,70.55,,,,,,,,
"Cc1ccccn1.Cc1ccccn1.O=C([O-])Cc1ccc(F)c(F)c1.O=C([O-])Cc1ccc(F)c(F)c1.O=C([O-])Cc1ccc(F)c(F)c1.O=C([O-])Cc1ccc(F)c(F)c1.[Cu+2].[Cu+2] [complex 1, [Cu2(3,4-F2C6H3CH2COO)4(2-CH3py)2]]",214 ± 7.77,8.07,15.77,25.39,39.00,51.12,283 ± 7.01,0.05,10.00,15.04,28.32,39.99,6.03,7.24,22.24,41.12,51.22,437.73,-6.979,pronounced increase
